From PMC10145651, “Modulation of the 5-Lipoxygenase Pathway by Chalcogen-Containing Inhibitors of Leukotriene A4 Hydrolase” (International Journal of Molecular Sciences, 2023)
Like-named read-outs stand apart in the source and are kept apart here.

Columns and labels:
LTA4H [1] = molecular target: T1, LTA4H (Homo sapiens, UniProt P09960); assay: 5-LOX product formation from intact PMNs: LTB4 (cellular activity of LTA4H); type: cell-based; conditions: for inhibition of LTA4H (LTB4 production) in PMNs with exogenous AA: 10 µM inhibitor, 0–20 µM AA
T1 sequence (P09960 1-611): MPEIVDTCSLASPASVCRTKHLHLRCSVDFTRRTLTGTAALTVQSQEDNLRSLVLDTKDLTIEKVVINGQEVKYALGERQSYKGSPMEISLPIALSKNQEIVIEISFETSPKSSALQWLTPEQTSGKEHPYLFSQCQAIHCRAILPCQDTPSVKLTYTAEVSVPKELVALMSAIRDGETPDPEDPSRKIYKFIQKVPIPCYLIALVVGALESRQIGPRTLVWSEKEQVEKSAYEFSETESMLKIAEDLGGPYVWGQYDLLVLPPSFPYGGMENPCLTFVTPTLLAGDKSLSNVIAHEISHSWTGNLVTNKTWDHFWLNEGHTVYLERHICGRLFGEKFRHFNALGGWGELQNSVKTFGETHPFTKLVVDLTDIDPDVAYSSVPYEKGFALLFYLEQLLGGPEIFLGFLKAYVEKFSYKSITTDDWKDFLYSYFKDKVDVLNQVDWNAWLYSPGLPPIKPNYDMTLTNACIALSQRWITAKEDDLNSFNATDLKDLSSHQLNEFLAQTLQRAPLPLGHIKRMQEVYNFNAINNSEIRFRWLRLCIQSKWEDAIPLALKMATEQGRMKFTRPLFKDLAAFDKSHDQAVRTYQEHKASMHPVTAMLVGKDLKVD
Procedure: Human primary leukocytes were isolated from peripheral blood of healthy adult volunteers provided by the Institute of Transfusion Medicine at the University Hospital Greifswald as described before. All methods were performed in accordance with the Declaration of Helsinki. In brief, erythrocytes were removed by dextran sedimentation and leukocytes were separated by the density gradient centrifugation on a lymphocyte separation medium (Histopaque®-1077, Merck, Darmstadt, Germany). The remaining erythrocytes were removed by hypotonic lysis using water, and resulting polymorphonuclear neutrophils (PMNs) were resuspended in PBS containing 0.1% (w/v) glucose (PG buffer) or PG buffer with 1 mM CaCl2 (PGC buffer) as indicated. Resulting peripheral blood mononuclear cells (PBMC), including monocytes, were seeded in the RPMI 1640 medium supplemented with 10% (v/v) FCS, 100 U/mL penicillin, 100 µg/mL streptomycin and 2 mM L-glutamine in cell culture flasks (Greiner Bio-one, Frickenhausen, Germany) for 1.5 h at 37 °C and 5% CO2. Adherent monocytes were washed twice with PBS and were finally resuspended in the RPMI 1640 medium as described before.
PMNs (5 × 10^6 cells/mL) were diluted in PGC buffer and pre-incubated with the vehicle (0.1%; v/v) or compounds for 10 min at 37 °C prior to the stimulation with 2.5 µM A23187. After 10 min at 37 °C, treatments were stopped on ice with an equal volume of ice-cold methanol. Next, 530 µL acidified PBS containing 200 ng PGB1 as an internal standard were added to the sample followed by the solid phase extraction with on a RP18 column. […] Formed 5-LOX metabolites were analyzed as described previously.

LTA4H [2] = molecular target: T1, LTA4H; assay: Epoxide hydrolase inhibition assay with recombinant LTA4H (LTA4 to LTB4); type: biochemical; set-up: made in house; host or cells: Escherichia coli JM101; conditions: epoxide hydrolase activity, 10-40 μM LTA4, competitive inhibition model
Excerpt: Human recombinant LTA4H was expressed in Escherichia coli JM101 strain and purified as described previously. In short, supernatant of lysed cells was loaded on a nickel affinity column followed by the purification steps with the Mono Q 5/50 and Superdex HiLoad 16/600 columns (Cytiva, Uppsala, Sweden). Protein purity was checked by sodium dodecyl-sulfate polyacrylamide gel electrophoresis (SDS-PAGE)(XCell SureLock Mini-Cell Electrophoresis System and PowerEase 300W Power Supply) with a NuPAGE Bis-Tris 4–12% gels (Invitrogen, Waltham, MA, USA) after every purification step.
Purified LTA4H (3 μg) was pre-incubated with 0–50 μM inhibitors on ice for 3 min and the epoxide hydrolase reaction was carried out with 10 μM, 20 μM or 40 μM LTA4 for 15 s in 100 μL 25 mM Tris-HCl pH 7.8 at room temperature. The incubation was stopped by addition of 2 vol of methanol, containing 300 pmol PGB2 (ε ~ 26,000 M^−1 cm^−1; λmax = 280 nm) as an internal standard, and followed by 1 vol of distilled water. […] The formation of LTB4 (ε ~ 50,000 M^−1 cm^−1) was determined at 270 nm. The Ki value for each inhibitor was calculated using the competitive inhibition model in the GraphPad Prism 9 program.

LTA4H [3] = molecular target: T1, LTA4H; assay: Peptidase assay of LTA4H with pNa and AMC conjugates; type: biochemical; set-up: made in house; host or cells: Escherichia coli JM101; conditions: for AC50: activation; for Specific activity of LTA4H with L-Ala-pNa in the presence of inhibitor: substrate L-Ala-pNa; for Specific activity of LTA4H with L-Ala-pNa in the presence of inhibitor / Specific activity of LTA4H with L-Arg-AMC in the presence of inhibitor / Specific activity of LTA4H with L-Arg-pNa in the presence of inhibitor / Specific activity of LTA4H with L-Leu-pNa in the presence of inhibitor / Specific activity of LTA4H with L-Pro-AMC in the presence of inhibitor / Specific activity of LTA4H with L-Pro-pNa in the presence of inhibitor / Specific activity of LTA4H with L-Val-pNa in the presence of inhibitor: mean ± SEM, n = 3; for Specific activity of LTA4H with L-Arg-AMC in the presence of inhibitor: substrate L-Arg-AMC; for Specific activity of LTA4H with L-Arg-pNa in the presence of inhibitor: substrate L-Arg-pNa; for Specific activity of LTA4H with L-Leu-pNa in the presence of inhibitor: substrate L-Leu-pNa; for Specific activity of LTA4H with L-Pro-AMC in the presence of inhibitor: substrate L-Pro-AMC; for Specific activity of LTA4H with L-Pro-pNa in the presence of inhibitor: substrate L-Pro-pNa; for Specific activity of LTA4H with L-Val-pNa in the presence of inhibitor: substrate L-Val-pNa; for fold change of specific activity with L-Arg-AMC / fold change of specific activity with L-Arg-pNa / fold change of specific activity with L-Pro-AMC: vs LTA4H without inhibitor (decrease); for fold change of specific activity with L-Ala-pNa / fold change of specific activity with L-Leu-pNa / fold change of specific activity with L-Val-pNa: vs LTA4H without inhibitor (increase)
Procedure: In addition, the aminopeptidase assay was performed with p-nitroanilide (pNa) and 7-amido-4-methylcoumarin (AMC) conjugates containing different N-terminal amino acids. Incubations were carried out with 1 μg LTA4H and 1 mM pNa substrates or 5 µM AMC substrates in 400 μL 10 mM Tris-HCl pH 7.8 containing 100 mM KCl at room temperature for 30 min. The absorbance of released pNa was measured after every 5 min at 405 nm using a TECAN Infinite M200 plate reader. The measurements with AMC derivatives were carried out using a black polystyrene 96-well plate and the fluorescence of released AMC at 360 nm/460 nm (ex/em) was recorded. Specific activities were calculated based on the standard curves of free pNA and AMC (Figure S10). The activation (AC50) or inhibition constants (IC50) were determined using the non-linear regression approach in the GraphPad Prism 9 program.

[4] = A23187-activated intact PMNs, LTB4 formation, read-out: IC50 on the activity of LTA4H (LTB4) in PMNs
[5] = 5 µM L-Arg-AMC, read-out: IC50, peptidase activity with L-Arg-AMC
[6] = 5 µM L-Pro-AMC, read-out: IC50, peptidase activity with L-Pro-AMC
[7] = 1 mM L-Arg-pNa, read-out: IC50, peptidase activity with L-Arg-pNa
[8] = 1 mM L-Lys-pNa, read-out: IC50, peptidase activity with L-Lys-pNa
[9] = 1 mM L-Ala-pNa, read-out: AC50, peptidase activity with L-Ala-pNa
[10] = 1 mM L-Leu-pNa, read-out: AC50, peptidase activity with L-Leu-pNa
[11] = 1 mM L-Val-pNa, read-out: AC50, peptidase activity with L-Val-pNa

Row | SMILES | inhibition of LTA4H (LTB4 production) in PMNs with exogenous AA (LTA4H [1]) | IC50 (LTA4H [1]; [4]) [nM] | Ki (LTA4H [2]) [nM] | IC50 (LTA4H [3]; [5]) [nM] | IC50 (LTA4H [3]; [6]) [nM] | IC50 (LTA4H [3]; [7]) [nM] | IC50 (LTA4H [3]; [8]) [nM] | AC50 (LTA4H [3]; [9]) [nM] | AC50 (LTA4H [3]; [10]) [nM] | AC50 (LTA4H [3]; [11]) [nM] | Specific activity of LTA4H with L-Ala-pNa in the presence of inhibitor (LTA4H [3]) [µmol/µg/min] | Specific activity of LTA4H with L-Arg-AMC in the presence of inhibitor (LTA4H [3]) [µmol/µg/min] | Specific activity of LTA4H with L-Arg-pNa in the presence of inhibitor (LTA4H [3]) [µmol/µg/min] | Specific activity of LTA4H with L-Leu-pNa in the presence of inhibitor (LTA4H [3]) [µmol/µg/min] | Specific activity of LTA4H with L-Pro-AMC in the presence of inhibitor (LTA4H [3]) [µmol/µg/min] | Specific activity of LTA4H with L-Pro-pNa in the presence of inhibitor (LTA4H [3]) [µmol/µg/min] | Specific activity of LTA4H with L-Val-pNa in the presence of inhibitor (LTA4H [3]) [µmol/µg/min] | fold change of specific activity with L-Arg-AMC (LTA4H [3]; in parentheses) [x] | fold change of specific activity with L-Arg-pNa (LTA4H [3]; in parentheses) [x] | fold change of specific activity with L-Pro-AMC (LTA4H [3]; in parentheses) [x] | further results
1 | Nc1nc(-c2ccc(Cc3ccccc3)cc2)cs1 [ARM1, 4-(4-benzylphenyl) thiazol-2-amine, reference compound] | almost complete | 600 | 1500 | 330 ± 90 | 300 ± 70 | 360 ± 60 | 1060 ± 240 | 180 ± 40 | 480 ± 50 | 230 ± 20 | 79.6 ± 7.6 | 10.1 ± 0.1 | 0.20 ± 0.03 | 46.3 ± 1.7 | 16.0 ± 0.2 | 2.65 ± 0.12 | 24.9 ± 0.8 |  |  |  | 
2 | Nc1nc(-c2ccc(Cc3ccccc3)cc2)c[se]1 [TTSe, 4-(4-benzylphenyl) selenazol-2-amine] | almost complete |  | 4800 |  |  |  |  |  |  |  | 88.0 ± 4.6 | 10.1 ± 0.1 | 0.20 ± 0.07 | 37.6 ± 1.1 | 15.7 ± 0.2 | 2.8 ± 0.1 | 24.6 ± 0.5 | 3 | 94 | 2 | IC50 (LTA4H [1]): 800 nM; AC50 (LTA4H [3]; AC50, peptidase activity with L-Ala-pNa, 1 mM L-Ala-pNa): 210 ± 30 nM; AC50 (LTA4H [3]; AC50, peptidase activity with L-Leu-pNa, 1 mM L-Leu-pNa): 520 ± 50 nM; AC50 (LTA4H [3]; AC50, peptidase activity with L-Val-pNa, 1 mM L-Val-pNa): 270 ± 30 nM; IC50 (LTA4H [3]; IC50, peptidase activity with L-Arg-AMC, 5 µM L-Arg-AMC): 380 ± 90 nM; IC50 (LTA4H [3]; IC50, peptidase activity with L-Arg-pNa, 1 mM L-Arg-pNa): 490 ± 100 nM; IC50 (LTA4H [3]; IC50, peptidase activity with L-Lys-pNa, 1 mM L-Lys-pNa): 1010 ± 360 nM; IC50 (LTA4H [3]; IC50, peptidase activity with L-Pro-AMC, 5 µM L-Pro-AMC): 250 ± 20 nM; fold change of specific activity with L-Ala-pNa (LTA4H [3]; in parentheses): 9 x; fold change of specific activity with L-Leu-pNa (LTA4H [3]; in parentheses): 10 x; fold change of specific activity with L-Val-pNa (LTA4H [3]; in parentheses): 30 x
3 | Nc1nc(-c2ccc(Cc3ccccc3)cc2)co1 [TTO, 4-(4-benzylphenyl) oxazol-2-amine] | higher production of LTB4 | 800 | 3800 | 440 ± 140 | 310 ± 50 | 460 ± 50 | 890 ± 710 | 280 ± 40 | 560 ± 60 | 210 ± 20 | 93.0 ± 1.7 | 9.9 ± 0.1 | 0.2 ± 0.1 | 46.9 ± 1.7 | 15.8 ± 0.2 | 2.3 ± 0.2 | 24.4 ± 0.4 | 3 | 89 | 2 | fold change of specific activity with L-Pro-pNa (LTA4H [3]; in parentheses, vs LTA4H without inhibitor): 1.3 x; fold change of specific activity with L-Ala-pNa (LTA4H [3]; in parentheses): 9 x; fold change of specific activity with L-Leu-pNa (LTA4H [3]; in parentheses): 12 x; fold change of specific activity with L-Val-pNa (LTA4H [3]; in parentheses): 30 x
